Assay results from PMC11596366, “Silybin Derivatives Produced by γ-Irradiation and Their Tyrosinase Inhibitory Activities” (Molecules, 2024).

Assays:
[1] = target: Mushroom tyrosinase (Agaricus bisporus, UniProt C7FF04); assay: Mushroom tyrosinase inhibitory activity (L-tyrosine substrate, OD 475 nm); type: biochemical
Description: Mushroom tyrosinase (Sigma-Aldrich Co., St. Louis, MO, USA) was used for in vitro assays with slight modifications from a previously described method. […] After 5 min incubation at room temperature, 0.1 mL L-tyrosine (2 mM) was added and incubated for additional 20 min.

[2] = system: tyrosinase; design: method as in PMID 30871862; conditions: against both monophenolase and diphenolase; cited from earlier work

Mushroom tyrosinase, sequence (C7FF04 2-392): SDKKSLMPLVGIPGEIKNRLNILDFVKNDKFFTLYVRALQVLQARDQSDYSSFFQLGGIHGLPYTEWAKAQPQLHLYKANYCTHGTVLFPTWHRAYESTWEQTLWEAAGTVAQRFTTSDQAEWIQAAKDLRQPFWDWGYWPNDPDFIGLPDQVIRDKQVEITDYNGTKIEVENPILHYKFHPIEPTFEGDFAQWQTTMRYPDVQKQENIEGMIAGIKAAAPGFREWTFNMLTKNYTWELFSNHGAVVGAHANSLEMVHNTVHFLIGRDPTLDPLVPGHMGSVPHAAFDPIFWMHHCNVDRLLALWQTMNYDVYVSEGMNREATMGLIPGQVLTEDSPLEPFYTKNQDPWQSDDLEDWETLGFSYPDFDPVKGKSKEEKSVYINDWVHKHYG
Mushroom tyrosinase, sequence (G1K3P4 entry or part of it, further chain): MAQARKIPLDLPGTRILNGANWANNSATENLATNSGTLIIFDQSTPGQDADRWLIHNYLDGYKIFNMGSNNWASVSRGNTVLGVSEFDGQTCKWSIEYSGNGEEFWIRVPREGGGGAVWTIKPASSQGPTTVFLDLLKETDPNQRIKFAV

OC[C@H]1O[C@@H](Oc2ccc(O)cc2)[C@H](O)[C@@H](O)[C@@H]1O [Arbutin, reference compound]
inhibition at 2300 µg/mL ([1]; concentration 2300 μg/mL, positive control): 50 ± 2.1%

COc1cc(C2Oc3cc([C@H]4Oc5cc(O)cc(O)c5C(=O)[C@@H]4O)ccc3OC2CO)ccc1O (stereo partly drawn) [Compound 0]
IC50 ([1]; non-irradiated and irradiated silybin samples, arbutin positive control, L-tyrosine 2 mM, pH 6.5): >200 µg/mL
Inhibition of Tyrosinase (%) ([1]; sample concentration 50 μg/mL, L-tyrosine 2 mM, pH 6.5): 5.2 ± 0.2%
Inhibition of Tyrosinase (%) ([1]; sample concentration 100 μg/mL, L-tyrosine 2 mM, pH 6.5): 11.4 ± 0.5%
Inhibition of Tyrosinase (%) ([1]; sample concentration 200 μg/mL, L-tyrosine 2 mM, pH 6.5): 26.5 ± 0.8%

COc1cc(C2Oc3cc([C@H]4Oc5cc(O)cc(O)c5C(=O)[C@@H]4O)ccc3OC2CO)ccc1O (stereo partly drawn) [silybin (1), silybin]
type of tyrosinase inhibition [2]: mixed type I (KI < KIS) inhibition
